Laboratory results published in patent publication US11932605B1, “9-(4-nitrobenzylidene)-4-(4-nitrophenyl)-3-cyano-2-methoxy-6,7,8,9-tetrahydro-5h-cyclohepta[b]pyridine as an antimicrobial compound” (KING FAISAL UNIVERSITY, priority 2023, dated 2024).

Experiments:
Pseudomonas aeruginosa = assay: Antimicrobial testing by agar dilution, Pseudomonas aeruginosa; format: cell-based; conditions: after 10, 20, 40 and 60 min at all dilutions 1:100, 1:200, 1:400, 1:800
Description: (§1) The antimicrobial properties of the 9-(4-Nitrobenzylidene)-4-(4-nitrophenyl)-3-cyano-2-methoxy-6,7,8,9-tetrahydro-5H-cyclohepta[b]pyridine was studied by the method of agar dilution. Test solutions of each compound was prepared in concentration of 1% using dimethylformamide as a solvent then they are diluted in physiological solution to obtain the final experimental dilutions 1:100, 1:200, 1:400, 1:800. The effect of these substances are compared with furacillin in a controllable study. The testing microbes used were gram positive bacteria Staphylococcus aureus, gram negative bacteria Pseudomonas aeruginosa, Escherichia coli and Candida albicans fungi were taken.
(§2) The experiments used for this survey were meat-pentonlu agar (EPA) for cultivation of bacteria and Saburo environment for fungi. Each experiment used 1 mL of test solution on each plate 500 min. Add 2 drops of emulsified with microbes feel. All experimental samples were taken from the agar after 10, 20, 40, 60 minutes in the environment on the basis of Patrk planted. Bacteria were cultivated at a temperature of 37° C. for 1 day and the mushroom was kept in a thermostat for […] at a temperature of 28° C. Then the results were checked.

Escherichia coli = assay: Antimicrobial testing by agar dilution, Escherichia coli; format: cell-based; conditions: after 10, 20, 40 and 60 min at all dilutions 1:100, 1:200, 1:400, 1:800
Description: as §1, §2

Staphylococcus aureus = assay: Antimicrobial testing by agar dilution, Staphylococcus aureus; format: cell-based; conditions: after 10, 20, 40 and 60 min at all dilutions 1:100, 1:200, 1:400, 1:800
Description: as §1, §2

Candida albicans = assay: Antimicrobial testing by agar dilution, Candida albicans; format: cell-based; conditions: after 10, 20, 40 and 60 min at all dilutions 1:100, 1:200, 1:400, 1:800
Description: as §1, §2

With COc1nc2c(c(-c3ccc([N+](=O)[O-])cc3)c1C#N)CCCC/C2=C\c1ccc([N+](=O)[O-])cc1 [9-(4-nitrobenzylidene)-4-(4-nitrophenyl)-3-cyano-2-methoxy-6,7,8,9-tetrahydro-5H-cyclohepta[b]pyridine] the inhibition activity (Pseudomonas aeruginosa) was “most higher inhibition activity”, the inhibition activity (Escherichia coli) was “most higher inhibition activity” and the inhibition activity (Staphylococcus aureus) was “most higher inhibition activity”. The melting point was 133 to 135 °C and the inhibition activity (Candida albicans) was “most higher inhibition activity”.
